According to patent US9789127B2, “N-acyl-phosphatidyl-ethanolamines and/or mixtures of N-acyl-ethanolamines with phosphatidic acids or lysophosphatidic acids” (HUNZA DI PISTOLESI ELVIRA & C. S.A.S., priority 2003, dated 2017):

Tests used:
ghost erythrocytes = experiment: Membrane fluidity of ghost erythrocytes (TMA-DPH fluorescent probe) of rats on a high-calorie, high-fat, high-cholesterol diet; format: in vivo, rat; settings: expressed as a % of the control values at time 0; rats after 20 day diet treatment, substance in the diet
Description: (§1) In the experimental tests, the rats were given a high-calorie, high-triglyceride, high-cholesterol diet. The following parameters were evaluated after twenty days treatment: • 1) effect of the compositions on the lipoperoxide levels in the plasma, liver, brain and heart; • 2) effect of the compositions on variations in body weight; • 3) effect of the compositions on variations in membrane fluidity of ghost erythrocytes and plasma platelets; • 4) effect of the compositions on the functionality of the hepatic mitochondria, evaluated by measuring: a) O2 consumption; b) reduced glutathione; c) the potential of the mitochondrial membranes; • 5) effect of the compositions on plasma levels of total cholesterol and HDL-cholesterol; • 6) effect of the compositions on plasma levels of total triglycerides.
(§2) 80 Male rats weighing 150-200 g each were used. […] The animals were given the same diet as the controls for 20 days, except that 50 mg of NOPE and 25 mg of B.F. (corresponding to ˜75 mg of the preparation described in example 6) replaced the same quantity of olive oil (olive oil used: 4.825%). • 7th group: treated with green tea bioflavones (B.F.). The animals were given the same diet as the controls for 20 days, except that 25 mg of B.F. replaced the same quantity of olive oil (olive oil used: 4.875%). […]

plasma platelets = experiment: Membrane fluidity of plasma platelets (TMA-DPH fluorescent probe) of rats on a high-calorie, high-fat, high-cholesterol diet; format: in vivo, rat; settings: expressed as a % of the control values at time 0; rats after 20 day diet treatment, substance in the diet
Description: as §1, §2

[1] = tested on: lipoperoxide levels (malonyldialdehyde, MDA); experiment: Lipoperoxide levels (malonyldialdehyde) in plasma, liver, brain and heart of rats on the diet; format: in vivo, rat; settings: rats after 20 day diet treatment
Description: as §1
(§3) 80 Male rats weighing 150-200 g each were used. The animals were divided into 8 groups of 10 animals: • 1st group: control (C); 10 animals (control at time 0) were used as is, and 10 were given a standard high-calorie, high-fat, high-cholesterol diet for 20 days, consisting of: • casein: 20%; mixture of trace elements and mineral salts: 3.5%; mixture of vitamins: 0.1%; choline bitartrate: 0.2%; cellulose: 2%; cholesterol: 0.5%; sodium cholate: 0.25%; saccharose: 58.44%, lard: 10.0% and olive oil: 4.9%. • 2nd group: treated with N-oleoyl-ethanolamine as such (NOE); the animals were given the same diet as the controls for 20 days, except that 50 mg of NOE replaced the same quantity of olive oil (olive oil used: 4.85%). • 3rd group: treated with N-oleoyl-phosphatidylethanolamine prepared as described in example 1 (NOPE); the animals were given the same diet as the controls for 20 days, except that 50 mg of NOPE (prepared as described in example 1) replaced the same quantity of olive oil (olive oil used: 4.85%). • 4th group: treated with N-oleoyl-ethanolamine+phosphatidic acid prepared as described in example 2: (NOE+PA); the animals were given the same diet as the controls for 20 days, except that 400 mg of the preparation described in example 2 (containing ˜50 mg of NOE and 150 mg of PA) replaced the same quantity of olive oil (olive oil used: 4.50%). • 5th group: treated with N-oleoyl-ethanolamine+lysophosphatidic acid prepared as described in example 3: (NOE+LPA); the animals were given the same diet as the controls for 20 days, except that 150 mg of the preparation described in example 3 (containing ˜50 mg of NOE and 100 mg of LPA) replaced the same quantity of olive oil (olive oil used: 4.75%). • 6th group: treated with “phosphobioflavonic complexes” of N-oleoyl-phosphatidylethanolamine and green tea bioflavones (B.F.) prepared as described in example 6 (NOPE+B.F.). The animals were given the same diet as the controls for 20 days, except that 50 mg of NOPE and 25 mg of B.F. (corresponding to ˜75 mg of the preparation described in example 6) replaced the same quantity of olive oil (olive oil used: 4.825%). • 7th group: treated with green tea bioflavones (B.F.). The animals were given the same diet as the controls for 20 days, except that 25 mg of B.F. replaced the same quantity of olive oil (olive oil used: 4.875%).
Malonyldialdehyde is assayed in accordance with the procedure described by K. Yagi et al., 1982, in “Lipid Peroxides in Biology and Medicine”, Academic Press, New York, 99.324-340.

[2] = Plasma total cholesterol, HDL cholesterol and triglyceride levels of rats on the diet; format: in vivo, rat; settings: rats after 20 day diet treatment
Description: as §1, §3

[3] = Variation in body weight of rats on the diet; format: in vivo, rat; settings: rats after 20 day diet treatment
Description: as §1
(§4) 80 Male rats weighing 150-200 g each were used. […] The animals were given the same diet as the controls for 20 days, except that 50 mg of NOPE and 25 mg of B.F. (corresponding to ˜75 mg of the preparation described in example 6) replaced the same quantity of olive oil (olive oil used: 4.825%). • 7th group: treated with green tea bioflavones (B.F.). The animals were given the same diet as the controls for 20 days, except that 25 mg of B.F. replaced the same quantity of olive oil (olive oil used: 4.875%).

hepatic mitochondria [4] = experiment: Functionality of hepatic mitochondria: hepatocellular O2 consumption; format: in vivo, rat; settings: rats after 20 day diet treatment
Description: as §1, §2

hepatic mitochondria [5] = experiment: Functionality of hepatic mitochondria: reduced hepatocellular glutathione content; format: in vivo, rat; settings: rats after 20 day diet treatment
Description: as §1, §2

hepatic mitochondria [6] = experiment: Functionality of hepatic mitochondria: mitochondrial membrane potential; format: in vivo, rat; settings: control rats at time 0 = 100%; rats after 20 day diet treatment
Description: as §1, §2

[7] = Experimental tests on rats, 20 day diet treatment: overall assessment of Tables I-IV; format: in vivo, rat; settings: oral administration, 20 days
Description: as §1, §4

[8] = Diet treatment tests carried out on man; format: in vivo; settings: oral administration
Description: A series of experimental tests on rats and clinical tests on man have been carried out to study the pharmacological and/or dietetic characteristics of the composition of the invention.
In all the diet treatment tests carried out on man, the effects obtainable by orally the formulations claimed by the invention (NAPE; NAE+PA; NAE+LPA; NAPE+B.F. and NAE plus PA and/or LPA+B.F.) always provided highly significant results and advantages, both in preventing biological signs of aging (improvement in mitochondrial activity, better membrane fluidity, improvement in plasma antioxidant defences, and limited weight increase) and improving the clinical parameters tested in relation to prevention of aging, and many of the metabolic disorders associated therewith.

Row | Compound | Membrane fluidity (ghost erythrocytes) (ghost erythrocytes) | Membrane fluidity (plasma platelets) (plasma platelets) | MDA BRAIN [1] | MDA HEART [1] | MDA LIVER [1] | MDA PLASMA [1] | HDL cholesterol [2] | Total cholesterol [2] | Total triglycerides [2] | Body weight [3] | Hepatocellular O2 consumption (hepatic mitochondria [4]) | Reduced glutathione (hepatic mitochondria [5]) | Mitochondrial membrane potential (hepatic mitochondria [6]) | Statistical significance of the effects of Tables I-IV (membrane fluidity, antioxidant defences, body weight, cholesterol and triglycerides, mitochondria) [7] | Benefit in preventing biological signs of aging and improving clinical parameters [8]
1 | CCCCCCCC/C=C\CCCCCCCC(=O)NCCO [NOE, N-oleoyl-ethanolamine] | 72% | 70% | 106 ± 7 nmoles of malonyldialdehyde (MDA) per gram of tissue | 44 ± 9 nmoles of malonyldialdehyde (MDA) per gram of tissue | 44.1 ± 8.2 nmoles of malonyldialdehyde (MDA) per gram of tissue | 5.0 ± 0.6 nmoles of malonyldialdehyde (M | 28.9 ± 2.8 mg/dL | 120.4 ± 12.7 mg/dL | 80.5 ± 6.8 mg/dL | 221 ± 16 gm | 368 ± 52 umoles O2/min per 10^7 cells | 36 ± 6 nmoles × 10^6 cells | 70% | no statistically significant benefit | no significant benefit
2 | N-oleoyl-phosphatidylethanolamine [NOPE] | 84% | 81% | 85 ± 9 nmoles of malonyldialdehyde (MDA) per gram of tissue | 32 ± 7 nmoles of malonyldialdehyde (MDA) per gram of tissue | 33.1 ± 6.5 nmoles of malonyldialdehyde (MDA) per gram of tissue | 3.8 ± 0.4 nmoles of malonyldialdehyde (M | 31.6 ± 3.9 mg/dL | 110.3 ± 10.1 mg/dL | 71.4 ± 8.7 mg/dL | 209 ± 18 gm | 408 ± 62 umoles O2/min per 10^7 cells | 41 ± 5 nmoles × 10^6 cells | 81% | always statistically significant | –
